{"source": "patent US20260373169A1", "about": "“SYNERGISTIC COMBINATION FOR THE TREATMENT OF CANCER” (FUNDACIÓN UNIVERSITARIA SAN ANTONIO (UCAM), priority 2023, published 2026)", "key": {"MCF-7 cells": {"test_system": "MCF-7 cells", "experiment": "Combination index / drug interaction (CompuSyn, Chou-Talalay), MCF-7", "format": "cell-based, human", "procedure": "IC50 values were calculated using GraphPad Prism software.\nAccording to the theory of T. C."}, "gliomas": {"test_system": "gliomas", "conditions": "cited from earlier work"}, "[1]": {"conditions": "weekly doses of 20 mg/m^2; cited from earlier work"}, "U-87 μMG cells": {"test_system": "U-87 μMG cells", "experiment": "MTT cytotoxicity assay, U-87 μMG", "conditions": "Homo sapiens, U-87 MG, read-out: U-87 μMG cell survival", "quoted_text": "Glimepiride and its analogs were first prepared as a stock solution in DMSO, and then the drugs were dissolved fresh in culture medium enriched with Tween 80 (final concentration 0.05%).\nHuman cancer cells (MCF-7, A549 and U-87 μMG) and normal endothelial cells (HMEC-1) were obtained from American Type Cell Culture (Rockville, MD). The cancer cell lines (MCF-7, A549 and U-87 μMG) were cultured as monolayers in Dulbecco's modified Eagle's medium supplemented with 10% (v/v) fetal bovine serum and 1% (v/v) penicillin/streptomycin mixture (10,000 U/mL penicillin and 10 mg/mL streptomycin) in a 100% humidified atmosphere of 5% CO2 and 95% air at 37 °C. […]\nThe cytotoxic activity of the test compounds against cancer cell lines was tested using the standard MTT (3-(4,5-dimethylthiazol-2-yl)-2,5-diphenyltetrazolium bromide) colorimetric assay. […] Plates were gently shaken at room temperature until the formazan was completely dissolved and read at 540 nm using a microplate reader. With the XTT method, there is no dissolution step in DMSO (XTT is reduced to a highly water-soluble, orange product instead of the insoluble formazan), and the plate is read at 450 nm. […] IC50 values were calculated using GraphPad Prism software. […]\nAll data are expressed as mean±standard deviation (SD) and presented as a percentage of control (untreated cells) taken as 100%, n=3 (or more). […]"}, "MDA-MB-231 cells": {"test_system": "MDA-MB-231 cells", "conditions": "Glibenclamide alone; inhibiting the G1-S phase progression without inducing cell death or differentiation; cited from earlier work"}, "[2]": {"conditions": "analog 100-500 μM with Doxorubicin 0.225-0.900 μM, over a wide range of dose combinations"}}, "data": [{"smiles": "CCCNC(=O)NS(=O)(=O)c1ccc(Cl)cc1", "note": "[Chlorpropamide, 1-(4-chlorophenyl) sulfonyl-3-propylurea]", "values": [{"measurement": "drug interaction with Doxorubicin", "setting": "MCF-7 cells; [2]", "result": "strong or very strong synergy"}]}, {"smiles": "COc1cccc2c1C(=O)c1c(O)c3c(c(O)c1C2=O)C[C@@](O)(C(=O)CO)C[C@@H]3O[C@H]1C[C@H](N)[C@H](O)[C@H](C)O1", "note": "[Doxorubicin, (7S,9S)-7-[(2R,4S,5S,6S)-4-amino-5-hydroxy-6 methyloxan-2-yl]oxy-6,9,11-trihydroxy-9-(2-hydroxyacetyl)-4-methoxy-8,10-dihydro-7H tetracene-5,12-dione]", "values": [{"measurement": "clinical results vs systemic administration", "setting": "gliomas; intracerebral administration, stage III or IV gliomas, Ommaya reservoir", "result": "Significantly better results"}, {"measurement": "clinical efficacy in certain brain tumors, such as gliomas", "setting": "gliomas; systemic administration", "result": "very limited efficacy"}, {"measurement": "neurotoxicity", "setting": "gliomas; very high systemic doses", "result": "highly neurotoxic"}, {"measurement": "incidence of congestive heart failure", "setting": "[1]", "result": "lower incidence of congestive heart failure"}, {"measurement": "viability at 0.52 µM", "setting": "U-87 μMG cells", "result": 75.6, "unit": "%"}]}, {"smiles": "Cc1ccc(S(=O)(=O)NC(=O)NN2CC3CCCC3C2)cc1", "note": "(stereo not drawn) [Gliclazide, 1-(3,3a,4,5,6,6a-hexahydro-1H-cyclopenta[c]pyrrol-2-yl)-3-(4-methylphenyl) sulfonylurea]", "values": [{"measurement": "drug interaction with Doxorubicin", "setting": "MCF-7 cells; [2]", "result": "strong or very strong synergy"}]}, {"smiles": "COc1ccc2c(c1)C(=O)N(CCc1ccc(S(=O)(=O)NC(=O)NC3CCCCC3)cc1)C(=O)C2(C)C", "note": "[Gliquidone]", "values": [{"measurement": "drug interaction with Doxorubicin", "setting": "MCF-7 cells; 100 μM analog in combination with Doxorubicin (0.225-0.900 μM)", "result": "additive effect or slight antagonism"}, {"measurement": "drug interaction with Doxorubicin", "setting": "MCF-7 cells; Gliquidone with Doxorubicin, dose combinations other than 100 μM", "result": "synergistic effects"}]}, {"smiles": "COc1ccc(Cl)cc1C(=O)NCCc1ccc(S(=O)(=O)NC(=O)NC2CCCCC2)cc1", "note": "[Glyburide]", "values": [{"measurement": "drug interaction with Doxorubicin", "setting": "MCF-7 cells; [2]", "result": "strong or very strong synergy"}, {"measurement": "effect in MDA-MB-231 cells", "setting": "MDA-MB-231 cells", "result": "cytostatic effect"}]}, {"smiles": "Cc1ccc(S(=O)(=O)NC(=O)NN2CCCCCC2)cc1", "note": "[Tolazamide, 1-(azepan-1-yl)-3-(4-methylphenyl) sulfonylurea]", "values": [{"measurement": "drug interaction with Doxorubicin", "setting": "MCF-7 cells; [2]", "result": "strong or very strong synergy"}]}]}
